According to patent publication US20250250265A1, “BENZOTHIAZOLE-PHENYLSULFONYL-PIPERIDINE ANALOGS AS ACTIVATORS OF NACYLPHOSPHATIDYLETHANOLAMINE HYDROLYZING PHOSPHOLIPASE D” (priority 2022, published 2025):
Entries after “also recorded” stand apart in the source; their conditions may differ. Values belong to the molecule of their own block, whether it stands above or below them.

Columns and labels:
[1] = test system: bone marrow-derived macrophages (BMDM); test: Efferocytosis assay with bone marrow-derived macrophages and apoptotic Jurkat cells; format: cell-based, mouse; conditions: 10 μM, 6 h before assay
Method: Male C57BL6/j wild-type or Napepld^−/− mice were euthanized with isoflurane and hind legs were removed. Marrow was flushed from femurs and tibias using DMEM containing 4.5 g/L glucose and a 26-gauge needle. Cell suspensions were passed over a 40-μm filter, centrifuged at 500×g, and resuspended in 50 ml of DMEM containing 4.5 g/L glucose, 20% L-cell conditioned media, 10% heat-inactivated FBS, and 1% penicillin/streptomycin. 10 ml of cell suspension was plated into each of five 100-mm dishes and incubated for four days at 37° C. and 5% CO2. On day four, non-adherent cells and debris were aspirated from the plates and replaced with fresh media. After 7 days of differentiation, cells were harvested for use in experiments.
Assays were performed according to previously described protocols. See e.g., Doran et al. J. Clin. Invest. 127(11): 4075-4089 (2017); Proto et al., Immunity 49(4): 666-677 (2018). Bone marrow-derived macrophages were seeded at 0.25×10^6 cells/well in a non-tissue culture-treated 24-well plate and allowed to adhere overnight. Macrophages were treated with various compounds at a final concentration of 10 μM or DMSO as a vehicle for 6 hours prior to each experiment. Jurkat cells were exposed to UV light (254 nm) for 5 minutes to induce apoptosis and then incubated in a 37° C. incubator with 5% CO2 for 2 hours. Surveillance staining of these cells routinely yielded approximately 80-90% apoptosis (Annexin V+) using this method. Apoptotic Jurkat cells were labeled with either CellVue Claret (Millipore Sigma) or Cell Trace Violet (Invitrogen) per the manufacturer's instructions. After staining, cells were resuspended in macrophage medium at a density of […] and 500 μL of this suspension was added to the drug-containing media on the macrophages to achieve a cell ratio of 3:1 Jurkats: macrophages. After incubating for 45 minutes at 37° C. and 5% CO2, the medium was aspirated, and the macrophages were gently washed twice with PBS to remove unbound apoptotic cells. Macrophages were then removed from the plate using Cell Stripper (Sigma), washed, resuspended in staining buffer consisting of 2% FBS in PBS with 2 mM EDTA, and blocked with anti-mouse CD16/32 antibodies for 15 minutes on ice. After blocking, cells were pelleted and resuspended with F4/80. Cells were incubated for 45 minutes on ice in the dark, then washed and resuspended in staining buffer for analysis. Cells were analyzed using an Attune NxT cytometer (Thermo Fisher) and data were analyzed using FlowJo software to quantify the proportion of F4/80^+ macrophages that co-stained for apoptotic cells (% efferocytosis).

[2] = target: T1, NAPE-PLD activity of RAW264.7 macrophages (Mus musculus, UniProt Q8BH82); test: Cell-based NAPE-PLD activity in RAW264.7 macrophages (PED-A1 with orlistat); conditions: with 20 μM VU534 (FIG. 17C)
T1 construct: endogenous in cells; host or cells: RAW264.7
T1 sequence (Q8BH82 1-396): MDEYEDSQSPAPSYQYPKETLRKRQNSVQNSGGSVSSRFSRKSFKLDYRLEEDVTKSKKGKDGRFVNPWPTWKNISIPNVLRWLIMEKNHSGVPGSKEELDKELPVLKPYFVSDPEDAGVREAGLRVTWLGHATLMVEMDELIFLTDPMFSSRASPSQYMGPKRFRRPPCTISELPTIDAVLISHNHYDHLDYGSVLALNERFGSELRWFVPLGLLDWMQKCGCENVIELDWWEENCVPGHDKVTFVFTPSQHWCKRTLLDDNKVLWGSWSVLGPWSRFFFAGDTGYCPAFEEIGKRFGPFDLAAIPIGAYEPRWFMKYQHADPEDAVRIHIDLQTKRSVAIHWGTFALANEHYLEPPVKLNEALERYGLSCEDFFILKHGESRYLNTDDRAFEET
Method: (§1) NAPE-PLD activity was measured in cells as previously described, except that FluoroBrite DMEM (Gibco A1896701) was used as media. See Zarrow et al., J. Lipid Res. 63(1): 100156 (2022). For RAW264.7 assays, PED-A1 (3.6 μM final) was used as the substrate with 10 μM orlistat added to inhibit PLA1 activity, while for HepG2 cells, flame-NAPE was used (with no orlistat added).

[3] = target: T2, NAPE-PLD activity in primary BMDMϕ (Mus musculus, UniProt Q8BH82); test: NAPE-PLD activity in primary bone marrow derived macrophages; format: cell-based; conditions: VU534 at 10 μM (FIG. 5)
T2 construct: endogenous in cells; host or cells: primary bone-marrow-derived macrophages (C57BL6/j mice)
T2 sequence (Q8BH82 1-396): T1 sequence (Q8BH82 1-396)

[4] = target: T3, NAPE-PLD activity of HepG2 cells (Homo sapiens, UniProt Q6IQ20); test: Cell-based NAPE-PLD activity in HepG2 cells (flame-NAPE); conditions: 10 μM
T3 construct: endogenous in cells; host or cells: HepG2
Method: In vitro models of the hepatic steatosis of non-alcoholic fatty liver disease (NAFLD) are well-established, with the primary method being incubation of primary human hepatocytes or hepatocyte cell lines such as HepG2, HuH7, HepaRG, with oleic acid and palmitic acid for 24 to 48 h, then measuring the resulting steatosis, lipid peroxidation, apoptosis, and inflammatory gene expression. Using flame-NAPE to measure NAPE-PLD activity in the human hepatoma HepG2 cell line, the experimental data confirmed that VU534 activated NAPE-PLD in human cells (AC50 940 nM; max % bA 155%). Bithionol (10 μM) reduced HepG2 flame-NAPE hydrolysis by >67%.
as §1

[5] = target: T4, recombinant mouse NAPE-PLD (Mus musculus, UniProt Q8BH82); test: In vitro competition assay (LEI-401, VU233, VU534) on recombinant mouse Nape-pld; format: biochemical
T4 construct: hexahistidine (His6) (C); made in house; host or cells: E. coli
T4 sequence (Q8BH82 1-396): T1 sequence (Q8BH82 1-396)
Method: A similar in vitro fluorescence Nape-pld activity assay was used for LEI-401 and VU233 competition assays except that this assay was performed using black-walled clear-bottom 96-well plates with 3.5 μM PED-A1 and no N-palmitoyl-dioleoyl-PE used as substrate and read in a BioTek Synergy H1 plate reader with the slope of the fluorescence signal from 0-4 min (linear phase) used as the assay readout. LEI-401, VU233, and VU534 were incubated for 1 h prior to addition of PED-A1. The Michaelis-Menten study used this same assay except with graded concentration of flame-NAPE.

T3 sequence (Q6IQ20 whole entry): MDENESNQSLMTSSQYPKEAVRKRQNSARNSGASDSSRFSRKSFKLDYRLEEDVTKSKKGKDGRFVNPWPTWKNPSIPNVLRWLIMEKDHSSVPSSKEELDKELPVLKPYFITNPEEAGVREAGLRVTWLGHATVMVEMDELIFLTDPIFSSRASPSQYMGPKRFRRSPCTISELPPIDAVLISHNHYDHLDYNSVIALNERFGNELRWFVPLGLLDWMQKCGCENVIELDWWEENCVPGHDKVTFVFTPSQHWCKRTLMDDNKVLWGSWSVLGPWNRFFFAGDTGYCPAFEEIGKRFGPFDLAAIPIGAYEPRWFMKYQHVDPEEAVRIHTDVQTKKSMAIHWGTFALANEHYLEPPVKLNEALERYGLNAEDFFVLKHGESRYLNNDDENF

Structure (SMILES): CCC(=O)N1CCC(NC(=O)Nc2ccc(OC(F)(F)F)cc2)CC1 [TPPU, N-[1-(1-Oxopropyl)-4-piperidinyl]-N′-[4-(trifluoromethoxy)phenyl]urea, reference compound]
effect on efferocytosis by wild-type BMDM [1]: Neither AUDA nor TPPU significantly enhanced efferocytosis

effect on NAPE-PLD activity in primary BMDM [3]: inhibits NAPE-PLD activity | reduction of HepG2 flame-NAPE hydrolysis [4]: > 67%
Structure (SMILES): Oc1c(Cl)cc(Cl)cc1Sc1cc(Cl)cc(Cl)c1O [bithionol, reference compound]
effect on increase in RAW264.7 NAPE-PLD activity induced by 20 μM VU534 [2]: blocked in a concentration-dependent manner; also recorded: blocks increased Nape-pld activity | effect on efferocytosis by wild-type BMDM [1]: markedly reduced efferocytosis | effect on efferocytosis by wild-type BMDM ([1]; listed as Bith): reduced efferocytosis

inhibition of mouse NAPE-PLD activity at 100 μM ([5]; 100 μM): nearly complete inhibition
Structure (SMILES): O=C(NCC1CC1)c1cc(N2CC[C@H](O)C2)nc(N2CCC[C@@H](c3ccccc3)C2)n1 [LEI-401, reference compound]
inhibition of mouse NAPE-PLD activity ([5]; graded concentrations (FIG. 19C)): inhibited mouse NAPE-PLD activity in a concentration-dependent manner

Structure (SMILES): O=C(O)CCCCCCCCCCCNC(=O)NC12CC3CC(CC(C3)C1)C2 [AUDA, 12-[[(tricyclo[3.3.1.13,7]dec-1-ylamino)carbonyl]amino]-dodecanoic acid, reference compound]
effect on efferocytosis by wild-type BMDM [1]: Neither AUDA nor TPPU significantly enhanced efferocytosis
